This assay deals with T1, PLK4 (Homo sapiens, UniProt O00444).
T1 sequence (O00444 1-970): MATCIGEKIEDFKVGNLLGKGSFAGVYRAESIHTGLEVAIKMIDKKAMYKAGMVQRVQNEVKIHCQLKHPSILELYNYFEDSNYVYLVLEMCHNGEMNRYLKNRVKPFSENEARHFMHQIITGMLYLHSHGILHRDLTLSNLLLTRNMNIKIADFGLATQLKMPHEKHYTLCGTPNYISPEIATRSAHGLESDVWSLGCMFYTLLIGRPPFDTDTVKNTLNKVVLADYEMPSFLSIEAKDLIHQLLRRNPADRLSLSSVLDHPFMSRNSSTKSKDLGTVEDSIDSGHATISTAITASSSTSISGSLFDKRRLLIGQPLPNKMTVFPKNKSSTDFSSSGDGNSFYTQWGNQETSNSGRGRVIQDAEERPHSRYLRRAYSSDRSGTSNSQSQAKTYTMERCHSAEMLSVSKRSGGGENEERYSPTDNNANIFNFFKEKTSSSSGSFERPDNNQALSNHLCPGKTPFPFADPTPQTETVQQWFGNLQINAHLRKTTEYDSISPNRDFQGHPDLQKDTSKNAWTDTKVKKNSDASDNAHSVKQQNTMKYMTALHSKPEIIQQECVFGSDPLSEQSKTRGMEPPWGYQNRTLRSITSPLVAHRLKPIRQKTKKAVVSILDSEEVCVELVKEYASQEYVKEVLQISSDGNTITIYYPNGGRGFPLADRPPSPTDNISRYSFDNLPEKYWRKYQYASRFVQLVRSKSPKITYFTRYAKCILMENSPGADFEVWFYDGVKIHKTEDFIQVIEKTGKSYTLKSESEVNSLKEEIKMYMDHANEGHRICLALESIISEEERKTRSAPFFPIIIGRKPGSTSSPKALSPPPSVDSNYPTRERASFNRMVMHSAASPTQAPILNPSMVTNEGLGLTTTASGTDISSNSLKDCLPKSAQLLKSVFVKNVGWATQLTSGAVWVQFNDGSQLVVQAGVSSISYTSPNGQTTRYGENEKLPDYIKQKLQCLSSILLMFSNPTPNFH
The assay can be described thus: Activity (IC50) of the Table 1 compounds as PLK4 inhibitors. The conditions noted are these: Table 1, IC50 class. It counts as biochemical.
As to `CNc1nc(Sc2ccc(NC(=O)C3CC3)cc2)nc(Nc2cc(C)[nH]n2)c1OC`, the IC50 (as a rule, the concentration needed to halve the response being measured) was < 100 nM.
On to `CCNc1nc(Sc2ccc(NC(=O)C3CC3)cc2)nc(Nc2cc(C)[nH]n2)c1OC`, for which the IC50 is < 100 nM.
With `CC(=O)Nc1ccc(Sc2nc3c(c(Nc4cc(C)[nH]n4)n2)C(C)CC3)cc1` (stereo not shown) the figure was < 100 nM; with `COc1c(Nc2cc(C)[nH]n2)nc(Sc2ccc(S(=O)(=O)C(F)c3cccc([N+](=O)[O-])c3F)cc2F)nc1N1CCC(CCN(C)C)CC1` (stereo not shown), < 100 nM; with `COc1c(Nc2cc(C)[nH]n2)nc(Sc2ccc(S(=O)(=O)C(C)(C)c3cccc([N+](=O)[O-])c3F)cc2F)nc1N1CCCCC1`, < 100 nM.
The result for `COc1c(Nc2cc(C)[nH]n2)nc(Sc2ccc(S(=O)(=O)C(C)(C)c3cccc([N+](=O)[O-])c3F)cc2F)nc1N1CCN(CCN(C)C)CC1` reads < 100 nM; that for `COc1c(Nc2cc(C)[nH]n2)nc(Sc2ccc(S(=O)(=O)C(F)c3cccc([N+](=O)[O-])c3F)cc2F)nc1N1CCOC[C@@H]1CO` (stereo partly shown), < 100 nM; that for `COc1c(Nc2cc(C)[nH]n2)nc(Sc2ccc(S(=O)(=O)C(F)(F)c3c(F)c(F)cc(F)c3F)cc2F)nc1N1CCOCC1`, < 100 nM.
With `COc1c(Nc2cc(C)[nH]n2)nc(Sc2ccc(S(=O)(=O)C(C)(C)c3c(F)c(F)c(C)c(F)c3F)cc2F)nc1N1CCOCC1` the figure was < 100 nM; with `COc1c(Nc2cc(C)[nH]n2)nc(Sc2ccc(S(=O)(=O)C(C)(C)c3c(F)c(F)c(C)c(F)c3F)cc2F)nc1N1CCN(CCN(C)C)CC1`, < 100 nM; with `COc1c(Nc2cc(C)[nH]n2)nc(Sc2ccc(S(=O)(=O)CCc3cccc([N+](=O)[O-])c3F)cc2F)nc1N1CCOCC1`, < 100 nM.
For the molecule `COc1c(Nc2cc(C)[nH]n2)nc(Sc2ccc(S(=O)(=O)C(C)(C)c3cccc([N+](=O)[O-])c3F)cc2F)nc1N1CCC(CCN(C)C)CC1`, the IC50 is < 100 nM.
Take `COc1c(Nc2cc(C)[nH]n2)nc(Sc2ccc(S(=O)(=O)C(C)(C)c3cccc([N+](=O)[O-])c3F)cc2F)nc1N1CCOC[C@@H]1CO`: the concentration for half-maximal inhibition (IC50) was < 100 nM.
Consider `COc1c(Nc2cc(C)[nH]n2)nc(Sc2ccc(S(=O)(=O)C(C)(C)c3cccc(Cl)c3F)cc2F)nc1N1CCOCC1`, for which the IC50 was < 100 nM.
Consider `COc1c(Nc2cc(C)[nH]n2)nc(Sc2ccc(S(=O)(=O)C(C)(C)c3cccc(Br)c3F)cc2F)nc1N1CCN(CCN(C)C)CC1`, for which the IC50 is < 100 nM.
Turning to `COc1c(Nc2cc(C)[nH]n2)nc(Sc2ccc(S(=O)(=O)C(C)(C)c3cccc(Cl)c3F)cc2F)nc1N1CCN(CCN(C)C)CC1`, the half-maximal inhibitory concentration (IC50) was < 100 nM.
With `COc1c(Nc2cc(C)[nH]n2)nc(Sc2ccc(S(=O)(=O)C(C)(C)c3cc(F)cc(Cl)c3F)cc2F)nc1N1CCOCC1`, the half-inhibitory concentration (IC50) is < 100 nM.
For the molecule `COc1c(Nc2cc(C)[nH]n2)nc(Sc2ccc(S(=O)(=O)C(F)c3cc(F)cc([N+](=O)[O-])c3F)cc2F)nc1N1CCOCC1` (stereo not shown), the IC50 is < 100 nM.
`COc1c(Nc2cc(C)[nH]n2)nc(Sc2ccc(S(=O)(=O)C(C)(C)c3cccc([N+](=O)[O-])c3F)cc2F)nc1N1CCC(N(C)C)CC1`: the half-inhibitory concentration (IC50) was < 100 nM.
With `COc1c(Nc2cc(C)[nH]n2)nc(Sc2ccc(S(=O)(=O)C(C)(C)c3cccc([N+](=O)[O-])c3F)cc2F)nc1N1CCN(C)CC1` the figure was < 100 nM; with `COc1c(Nc2cc(C)[nH]n2)nc(Sc2ccc(S(=O)(=O)C(C)(C)c3cccc([N+](=O)[O-])c3F)cc2F)nc1N1CCNCC1`, < 100 nM.
As to `COc1c(Nc2cc(C)[nH]n2)nc(Sc2ccc(S(=O)(=O)C(C)(C)c3cccc([N+](=O)[O-])c3F)cc2F)nc1N1CCCC(N(C)C)C1` (stereo not shown), the concentration for half-maximal inhibition (IC50) is < 100 nM.
The result for `COc1c(Nc2cc(C)[nH]n2)nc(Sc2ccc(S(=O)(=O)C(C)(C)c3cc(F)cc([N+](=O)[O-])c3F)cc2F)nc1N1CCC(CCN(C)C)CC1` reads < 100 nM.
The result for `COc1c(Nc2cc(C)[nH]n2)nc(Sc2ccc(S(=O)(=O)C(C)(C)c3cccc(Cl)c3F)cc2F)nc1N1CCC(CCN(C)C)CC1` reads < 100 nM; that for `COc1c(Nc2cc(C)[nH]n2)nc(Sc2ccc(S(=O)(=O)C(C)(C)c3cccc([N+](=O)[O-])c3F)cc2F)nc1N1CCC(CCCN(C)C)CC1`, < 100 nM; that for `COc1c(Nc2cc(C)[nH]n2)nc(Sc2ccc(S(=O)(=O)C(C)(C)c3cc(F)cc(Cl)c3F)cc2F)nc1N1CCC(CCN(C)C)CC1`, < 100 nM.
For `COc1c(Nc2cc(C)[nH]n2)nc(Sc2ccc(S(=O)(=O)C(C)(C)c3cccc([N+](=O)[O-])c3F)cc2F)nc1N1CCC(CN(C)C)CC1`, the IC50 is < 100 nM.
`COc1c(Nc2cc(C)[nH]n2)nc(Sc2ccc(S(=O)(=O)C(C)(C)c3cccc([N+](=O)[O-])c3F)cc2F)nc1N1CCC(CC(=O)N(C)C)CC1`: the half-inhibitory concentration (IC50) is < 100 nM.
For `COc1c(Nc2cc(C)[nH]n2)nc(Sc2ccc(S(=O)(=O)C(C)(C)c3cccc([N+](=O)[O-])c3F)cc2F)nc1N(C)C`, the IC50 was < 100 nM.
With `COc1c(Nc2cc(C)[nH]n2)nc(Sc2ccc(S(=O)(=O)C(C)(C)c3cccc([N+](=O)[O-])c3F)cc2F)nc1N1CCC(CCNC(C)=O)CC1` the figure was < 100 nM; with `COc1ccc(CN(C)CCC2CCN(c3nc(Sc4ccc(S(=O)(=O)C(C)(C)c5cc(Cl)cc([N+](=O)[O-])c5F)cc4F)nc(Nc4cc(C)[nH]n4)c3OC)CC2)cc1`, < 100 nM.
With `COc1c(Nc2cc(C)[nH]n2)nc(Sc2ccc(S(=O)(=O)C(C)(C)c3c(F)c(F)cc(F)c3F)cc2F)nc1N1CCC(N(C)C)CC1` the figure was < 100 nM; with `COc1c(Nc2cc(C)[nH]n2)nc(Sc2ccc(S(=O)(=O)Cc3c(F)c(F)cc(Cl)c3F)cc2F)nc1N1CCOCC1`, < 100 nM.
For the molecule `COc1c(Nc2cc(C)[nH]n2)nc(Sc2ccc(S(=O)(=O)Cc3c(F)c(F)cc(Cl)c3F)cc2F)nc1N1CCN(CCN(C)C)CC1`, the IC50 was < 100 nM.
With `COc1c(Nc2cc(C)[nH]n2)nc(Sc2ccc(S(=O)(=O)Cc3c(F)c(F)cc(Cl)c3F)cc2F)nc1N1CCC(CCN(C)C)CC1` the figure was < 100 nM; with `COC(=O)CC1CCN(c2nc(Sc3ccc(S(=O)(=O)C(C)(C)c4cccc([N+](=O)[O-])c4F)cc3F)nc(Nc3cc(C)[nH]n3)c2OC)CC1`, < 100 nM; with `COc1c(Nc2cc(C)[nH]n2)nc(Sc2ccc(S(=O)(=O)C(C)(C)c3cccc([N+](=O)[O-])c3F)cc2F)nc1N1CCC(CC(=O)O)CC1`, < 100 nM.
With `COc1c(Nc2cc(C)[nH]n2)nc(Sc2ccc(S(=O)(=O)C(C)(C)c3cccc([N+](=O)[O-])c3F)cc2F)nc1N1CCC(N(C)C)C1` (stereo not shown) the figure was < 100 nM; with `COc1c(Nc2cc(C)[nH]n2)nc(Sc2ccc(S(=O)(=O)C(C)(C)c3cccc([N+](=O)[O-])c3F)cc2F)nc1N1CCC(OC)C1` (stereo not shown), < 100 nM; with `COc1c(Nc2cc(C)[nH]n2)nc(Sc2ccc(S(=O)(=O)C(C)(C)c3cccc([N+](=O)[O-])c3F)cc2F)nc1N1CCC(CCO)CC1`, < 100 nM.
As to `COCCC1CCN(c2nc(Sc3ccc(S(=O)(=O)C(C)(C)c4cccc([N+](=O)[O-])c4F)cc3F)nc(Nc3cc(C)[nH]n3)c2OC)CC1`, the IC50 was < 100 nM.
With `COc1c(Nc2cc(C)[nH]n2)nc(Sc2ccc(S(=O)(=O)C(C)(C)c3cccc([N+](=O)[O-])c3F)cc2F)nc1N1CCN(C(=O)CN(C)C)CC1` the figure was < 100 nM; with `COc1c(Nc2cc(C)[nH]n2)nc(Sc2ccc(S(=O)(=O)C(C)(C)c3c(F)c(F)cc(Cl)c3F)cc2F)nc1N1CCOCC1`, < 100 nM.

(Values after patent US11612604B2, “Methods of treating cancer with PLK4 inhibitors” (LUDWIG INSTITUTE FOR CANCER RESEARCH LTD, priority 2017, dated 2023).)
